Experimental data taken from patent US10227357B2, “Compounds and methods for kinase modulation, and indications therefor” (Plexxikon Inc., priority 2012, dated 2019).
Like-named read-outs stand apart in the source and are kept apart here.

Experiments:
[1] = molecular target: T1, c-kit kinase (Homo sapiens, UniProt P10721); assay: c-Kit biochemical assay, AlphaScreen, 10 μM ATP
T1 construct: The c-kit (or kinase domain thereof) is an active kinase in AlphaScreen; poly-Histidine tag (in-house protein only) (cleaved yes); host or cells: E. coli BL21(DE3)RIL, co-expressed with PTP1B
T1 sequence (P10721 26-976): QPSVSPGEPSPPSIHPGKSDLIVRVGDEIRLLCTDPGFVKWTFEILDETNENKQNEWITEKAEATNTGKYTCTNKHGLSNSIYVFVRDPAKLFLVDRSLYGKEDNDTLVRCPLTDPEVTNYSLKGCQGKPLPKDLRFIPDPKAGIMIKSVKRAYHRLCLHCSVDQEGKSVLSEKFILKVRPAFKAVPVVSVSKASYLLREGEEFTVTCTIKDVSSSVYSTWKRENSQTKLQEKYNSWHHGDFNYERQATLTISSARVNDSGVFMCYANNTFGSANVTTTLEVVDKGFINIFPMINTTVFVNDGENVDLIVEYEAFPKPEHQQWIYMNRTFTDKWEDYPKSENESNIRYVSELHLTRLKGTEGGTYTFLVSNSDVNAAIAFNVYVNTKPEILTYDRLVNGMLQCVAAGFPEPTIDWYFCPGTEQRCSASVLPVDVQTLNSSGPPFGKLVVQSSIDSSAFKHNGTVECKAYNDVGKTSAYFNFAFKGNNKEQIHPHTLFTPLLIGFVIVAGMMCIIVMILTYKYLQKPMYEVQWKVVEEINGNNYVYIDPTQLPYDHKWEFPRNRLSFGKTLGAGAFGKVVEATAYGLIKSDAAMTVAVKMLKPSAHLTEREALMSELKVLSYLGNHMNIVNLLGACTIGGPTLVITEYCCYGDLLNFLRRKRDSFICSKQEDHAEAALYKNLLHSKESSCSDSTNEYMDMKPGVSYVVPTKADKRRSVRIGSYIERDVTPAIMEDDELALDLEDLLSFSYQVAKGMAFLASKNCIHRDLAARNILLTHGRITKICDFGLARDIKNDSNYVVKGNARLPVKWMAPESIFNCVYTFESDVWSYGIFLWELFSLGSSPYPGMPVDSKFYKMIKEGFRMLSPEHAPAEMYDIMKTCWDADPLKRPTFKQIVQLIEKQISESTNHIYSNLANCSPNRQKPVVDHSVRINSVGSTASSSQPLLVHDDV
Summary of the method: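 His-tagged c-Kit expressed in E. coli with co-expressed PTP1B (dephosphorylated), tag removed; 0.1 ng per reaction with biotinylated-peptide substrate in 50 mM HEPES pH 7.2, 5 mM MgCl2, 5 mM MnCl2, 5% DMSO, 10 μM ATP, 1 h at room temperature. Phosphorylation detected by AlphaScreen (streptavidin donor, PY20 acceptor beads); IC50 from 8-point 1:3 dilution series.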

[2] = molecular target: T2, c-kit mutant D816V (Homo sapiens, UniProt P10721, D816V/DEL694-753); assay: c-Kit mutant D816V biochemical assay, AlphaScreen
T2 construct: residues 551-934, kinase insertion domain residues 694-753 deleted; 6x-histidine (N); made in house; host or cells: E. coli Arctic Express (DE3) RIL (Stratagene)
T2 sequence (P10721 with tags, fused parts or gaps DEL694-753/D816V): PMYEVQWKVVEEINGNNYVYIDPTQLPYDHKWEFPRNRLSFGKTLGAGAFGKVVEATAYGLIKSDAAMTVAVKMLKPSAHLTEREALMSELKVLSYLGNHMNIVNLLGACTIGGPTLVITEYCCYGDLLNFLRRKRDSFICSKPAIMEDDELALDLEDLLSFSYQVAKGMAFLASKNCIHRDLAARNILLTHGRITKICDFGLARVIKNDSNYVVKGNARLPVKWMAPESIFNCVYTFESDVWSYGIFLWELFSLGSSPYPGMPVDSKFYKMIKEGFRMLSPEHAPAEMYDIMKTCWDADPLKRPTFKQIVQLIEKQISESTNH
Summary of the method: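 Purified His-tagged c-Kit D816V (E. coli-expressed) assayed in 25 mM HEPES pH 7.2 with Mg/Mn, 5% DMSO and 10 μM ATP, 30 min at room temperature, 8-point 1:3 dilutions. Phosphorylation detected by AlphaScreen with streptavidin donor and PY20 acceptor beads; IC50 from signal versus concentration.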

[3] = c-kit biochemical inhibitory activity, read-out: Biochemical activity (IC50 μM) Kit
[4] = c-kit D816V biochemical inhibitory activity, read-out: Biochemical activity (IC50 μM) Kit D816V

| Compound | IC50 [1, 3] | IC50 [2, 4] | IC50 [1] | IC50 ([2]; Biochemical activity (IC50 μM) Kit D816V) |
| --- | --- | --- | --- | --- |
| Cc1nn(C)cc1-c1cc2c(N3CCC(NS(=O)(=O)c4ccc(Cl)cc4)CC3)ncnc2[nH]1 [P-0667, 4-chloro-N-[1-[6-(1,3-dimethylpyrazol-4-yl)-7H-pyrrolo[2,3-d]pyrimidin-4-yl]-4-piperidyl]benzenesulfonamide] | 0.0001 to 1 µM | 0.0001 to 1 µM | – | – |
| O=C(Nc1ccc(OC(F)(F)F)cc1)N1CCN(c2ncnc3[nH]c(-c4ccc(C5CC5)nc4)cc23)CC1 [P-0111, 4-[6-(6-cyclopropyl-3-pyridyl)-7H-pyrrolo[2,3-d]pyrimidin-4-yl]-N-[4-(trifluoromethoxy)phenyl]piperazine-1-carboxamide] | 1 to 10 µM | 10 to 200 µM | – | – |
| C[C@H](NC(=O)N1CCN(c2ncnc3[nH]c(-c4cnn(C)c4)cc23)CC1(C)C)c1ccc(F)cc1 [P-0720, N-[(1S)-1-(4-fluorophenyl)ethyl]-2,2-dimethyl-4-[6-(1-methylpyrazol-4-yl)-7H-pyrrolo[2,3-d]pyrimidin-4-yl]piperazine-1-carboxamide] | 0.0001 to 1 µM | 0.0001 to 1 µM | – | – |
| CC(C)Oc1ccc(S(=O)(=O)NC2CCN(c3ncnc4[nH]c(-c5cnn(C)c5)cc34)CC2)cc1 [P-0488, 4-isopropoxy-N-[1-[6-(1-methylpyrazol-4-yl)-7H-pyrrolo[2,3-d]pyrimidin-4-yl]-4-piperidyl]benzenesulfonamide] | 0.0001 to 1 µM | 0.0001 to 1 µM | – | – |
| O=S(=O)(Nc1ccc(-c2ncnc3[nH]c(-c4ccc(F)cc4)cc23)cc1F)c1ccc(F)cc1 [P-0408, 4-fluoro-N-[2-fluoro-4-[6-(4-fluorophenyl)-7H-pyrrolo[2,3-d]pyrimidin-4-yl]phenyl]benzenesulfonamide] | 10 to 200 µM | 1 to 10 µM | – | – |
| NS(=O)(=O)c1cccc(-c2cc3c(N4CCN(C(=O)Nc5ccc(OC(F)(F)F)cc5)CC4)ncnc3[nH]2)c1 [P-0083, 4-[6-(3-sulfamoylphenyl)-7H-pyrrolo[2,3-d]pyrimidin-4-yl]-N-[4-(trifluoromethoxy)phenyl]piperazine-1-carboxamide] | 0.0001 to 1 µM | 0.0001 to 1 µM | – | – |
| Cc1nc(-c2cccc(NC(=O)N3CCN(c4ncnc5[nH]ccc45)CC3)c2)no1 [P-0151, N-[3-(5-methyl-1,2,4-oxadiazol-3-yl)phenyl]-4-(7H-pyrrolo[2,3-d]pyrimidin-4-yl)piperazine-1-carboxamide] | 10 to 200 µM | 10 to 200 µM | – | – |
| Cc1cc2c(-c3ccc(NS(=O)(=O)c4ccc(OC(F)F)cc4)cc3)ncnc2[nH]1 [P-0329, 4-(difluoromethoxy)-N-[4-(6-methyl-7H-pyrrolo[2,3-d]pyrimidin-4-yl)phenyl]benzenesulfonamide] | 10 to 200 µM | 10 to 200 µM | – | – |
| C[C@@H]1CN(c2ncnc3[nH]c(-c4ccncc4)cc23)CCN1C(=O)NCc1cccc(Cl)c1 [P-0056, (2R)-N-[(3-chlorophenyl)methyl]-2-methyl-4-[6-(4-pyridyl)-7H-pyrrolo[2,3-d]pyrimidin-4-yl]piperazine-1-carboxamide] | 1 to 10 µM | 0.0001 to 1 µM | – | – |
| C[C@H](NC(=O)N1CCN(c2ncnc3cc(-c4ccc(F)cc4)sc23)CC1(C)C)c1ccc(F)cc1 [P-0593, N-[(1S)-1-(4-fluorophenyl)ethyl]-4-[6-(4-fluorophenyl)thieno[3,2-d]pyrimidin-4-yl]-2,2-dimethyl-piperazine-1-carboxamide] | 10 to 200 µM | 0.0001 to 1 µM | – | – |
| C[C@H](NC(=O)N1CCN(c2ncnc3[nH]c(-c4ccc(F)cc4)cc23)CC1)c1cccc(N(C)C)c1 [P-0016, N-[(1S)-1-[3-(dimethylamino)phenyl]ethyl]-4-[6-(4-fluorophenyl)-7H-pyrrolo[2,3-d]pyrimidin-4-yl]piperazine-1-carboxamide] | 1 to 10 µM | 0.0001 to 1 µM | – | – |
| Cc1cc2c(-c3ccc(NS(=O)(=O)c4ccc(C)s4)cc3F)ncnc2[nH]1 [P-0291, N-[3-fluoro-4-(6-methyl-7H-pyrrolo[2,3-d]pyrimidin-4-yl)phenyl]-5-methyl-thiophene-2-sulfonamide] | 1 to 10 µM | 0.0001 to 1 µM | – | – |
| Cc1cc2c(-c3ccc(NS(=O)(=O)c4ccc(Br)cc4)cc3)ncnc2[nH]1 [P-0318, 4-bromo-N-[4-(6-methyl-7H-pyrrolo[2,3-d]pyrimidin-4-yl)phenyl]benzenesulfonamide] | 1 to 10 µM | 1 to 10 µM | – | – |
| Cc1n[nH]c2ncnc(-c3ccc(NS(=O)(=O)c4cccc(F)c4)cc3)c12 [P-0440, 3-fluoro-N-[4-(3-methyl-1H-pyrazolo[3,4-d]pyrimidin-4-yl)phenyl]benzenesulfonamide] | 1 to 10 µM | 0.0001 to 1 µM | – | – |
| Cc1ccc(S(=O)(=O)NC2CCN(c3ncnc4[nH]c(C)cc34)CC2)cc1 [P-0675, 4-methyl-N-[1-(6-methyl-7H-pyrrolo[2,3-d]pyrimidin-4-yl)-4-piperidyl]benzenesulfonamide] | 10 to 200 µM | 1 to 10 µM | – | – |
| C[C@H](NC(=O)N1CCN(c2ncnc3cc(N4CCOCC4)sc23)CC1)c1ccc(F)cc1 [P-0589, N-[(1S)-1-(4-fluorophenyl)ethyl]-4-(6-morpholinothieno[3,2-d]pyrimidin-4-yl)piperazine-1-carboxamide] | 10 to 200 µM | 0.0001 to 1 µM | – | – |
| COc1cccc([C@H](C)NC(=O)N2CCN(c3ncnc4[nH]c(-c5ccnc(OC)c5)cc34)CC2(C)C)c1 [P-0009, N-[(1S)-1-(3-methoxyphenyl)ethyl]-4-[6-(2-methoxy-4-pyridyl)-7H-pyrrolo[2,3-d]pyrimidin-4-yl]-2,2-dimethyl-piperazine-1-carboxamide] | 1 to 10 µM | 0.0001 to 1 µM | – | – |
| Cc1cc2c(-c3ccc(NS(=O)(=O)c4ccc(C(F)(F)F)nc4)cc3)ncnc2[nH]1 [P-0297, N-[4-(6-methyl-7H-pyrrolo[2,3-d]pyrimidin-4-yl)phenyl]-6-(trifluoromethyl)pyridine-3-sulfonamide] | 10 to 200 µM | 1 to 10 µM | – | – |
| Cc1n[nH]c2ncnc(-c3ccc(NS(=O)(=O)c4ccc(Cl)cc4)cc3)c12 [P-0445, 4-chloro-N-[4-(3-methyl-1H-pyrazolo[3,4-d]pyrimidin-4-yl)phenyl]benzenesulfonamide] | 1 to 10 µM | 0.0001 to 1 µM | – | – |
| N#Cc1cccc(-c2cc3c(N4CCN(C(=O)Nc5ccc(OC(F)(F)F)cc5)CC4)ncnc3[nH]2)c1 [P-0121, 4-[6-(3-cyanophenyl)-7H-pyrrolo[2,3-d]pyrimidin-4-yl]-N-[4-(trifluoromethoxy)phenyl]piperazine-1-carboxamide] | 10 to 200 µM | 10 to 200 µM | – | – |
| Cc1cc2c(-c3ccc(NS(C)(=O)=O)cc3)ncnc2[nH]1 [P-0379, N-[4-(6-methyl-7H-pyrrolo[2,3-d]pyrimidin-4-yl)phenyl]methanesulfonamide] | 10 to 200 µM | 1 to 10 µM | – | – |
| C[C@H]1CN(c2ncnc3[nH]c(-c4ccncc4)cc23)CCN1C(=O)Nc1ccc(Cl)cc1 [P-0045, (2S)-N-(4-chlorophenyl)-2-methyl-4-[6-(4-pyridyl)-7H-pyrrolo[2,3-d]pyrimidin-4-yl]piperazine-1-carboxamide] | 1 to 10 µM | 1 to 10 µM | – | – |
| O=S(=O)(Nc1ccc(-c2ncnc3[nH]c(-c4ccc(F)cc4)cc23)c(F)c1)C1CC1 [P-0401, N-[3-fluoro-4-[6-(4-fluorophenyl)-7H-pyrrolo[2,3-d]pyrimidin-4-yl]phenyl]cyclopropanesulfonamide] | 10 to 200 µM | 0.0001 to 1 µM | – | – |
| O=C(NCc1ccc(Cl)cc1)N1CCN(c2ncnc3[nH]ccc23)CC1 [P-0170, N-[(4-chlorophenyl)methyl]-4-(7H-pyrrolo[2,3-d]pyrimidin-4-yl)piperazine-1-carboxamide] | 1 to 10 µM | 10 to 200 µM | – | – |
| COc1cc(-c2cc3c(N4CCN(C(=O)N[C@@H](C)c5cccc(Cl)c5)C(C)(C)C4)ncnc3[nH]2)ccn1 [P-0650, N-[(1S)-1-(3-chlorophenyl)ethyl]-4-[6-(2-methoxy-4-pyridyl)-7H-pyrrolo[2,3-d]pyrimidin-4-yl]-2,2-dimethyl-piperazine-1-carboxamide] | 1 to 10 µM | 0.0001 to 1 µM | – | – |
| Cc1cc2c(-c3ccc(NS(=O)(=O)c4cccc(Cl)c4F)cc3F)ncnc2[nH]1 [P-0364, 3-chloro-2-fluoro-N-[3-fluoro-4-(6-methyl-7H-pyrrolo[2,3-d]pyrimidin-4-yl)phenyl]benzenesulfonamide] | 10 to 200 µM | 10 to 200 µM | – | – |
| COc1cccc([C@@H](C)NC(=O)N2CCN(c3ncnc4cc(-c5ccc(F)cc5)sc34)C[C@H]2C)c1 [P-0605, (2R)-4-[6-(4-fluorophenyl)thieno[3,2-d]pyrimidin-4-yl]-N-[(1R)-1-(3-methoxyphenyl)ethyl]-2-methyl-piperazine-1-carboxamide] | 10 to 200 µM | 10 to 200 µM | – | – |
| COCCOc1cc2ncnc(-c3ccc(NS(=O)(=O)c4ccc(OC)cc4)cc3F)c2cc1OCCOC [P-0262, N-[4-[6,7-bis(2-methoxyethoxy)quinazolin-4-yl]-3-fluoro-phenyl]-4-methoxy-benzenesulfonamide] | 0.0001 to 1 µM | 0.0001 to 1 µM | – | – |
| CS(=O)(=O)Nc1ccc(-c2ncnc3[nH]c(-c4ccc(F)cc4F)cc23)c(F)c1 [P-0333, N-[4-[6-(2,4-difluorophenyl)-7H-pyrrolo[2,3-d]pyrimidin-4-yl]-3-fluoro-phenyl]methanesulfonamide] | 0.0001 to 1 µM | 0.0001 to 1 µM | – | – |
| CCCCS(=O)(=O)Nc1ccc(-c2ncnc3[nH]c(C)cc23)cc1 [P-0288, N-[4-(6-methyl-7H-pyrrolo[2,3-d]pyrimidin-4-yl)phenyl]butane-1-sulfonamide] | – | – | 10 to 200 µM | 1 to 10 µM |
